For assay [1], the system named is Shionogi mouse mammary carcinoma cells. The experiment in a line: Antiandrogenic activity on DHT-stimulated Shionogi mouse mammary carcinoma cell number. It counts as cell-based. To be noted: for A = Ki OH-Flu/Ki compound: ratio of Ki of hydroxyflutamide versus tested compound, higher values preferable.
Assay [2] has as its system ear sebaceous glands in the male hamster. The assay can be described thus: Topical antiandrogenic activity, ear sebaceous glands model in the male hamster. The note with it: Mesocricetus auratus, 336 h, topical on left pinna, area of sebaceous glands of left ear, read-out: Ear Area Inhibition. Vs Control (%); for inhibition in vivo at 0.01 mg: dose 10 μg daily for 14 days; for inhibition in vivo at 0.03 mg: dose 30 μg daily for 14 days. It counts as in vivo, Golden Syrian hamster. The text has this: • Column 2 represent the daily dose for 14 days of tested compound dissolved in ten μl solution of acetone:ethanol:propylene Glycol (1:1:2; v:v:v) applied onto a region between the two cartilage ridges of the ventral surface of left pinna. • Column 3 represents the percentage of inhibition of the area of the sebaceous glands of the left ear of the treated animals versus the area of the sebaceous glands of the left ear of the control animals.
C—In vivo Assessment of Topical Antiandrogenic Activity
The antiandrogenic activity of compounds for topical use was determined using the ear sebaceous glands model in the male hamster.
Male Golden Syrian Hamsters (SYR) of 110-120 g were obtained from Harlan Sprague-Dawley (Madison, USA) and housed up to 2 per plastic cage in a temperature (22±3° C.) and light (12 h light/day, lights on at 7h15)-controlled environment. The hamsters were fed with Certified Rodent Diet 5002 (pellet) and had access to tap water ad libitum. The animals were acclimatized for at least five days prior to beginning the study. Animals were randomly assigned to groups of eight hamsters. One group of hamsters were castrated under isoflurane-induced anesthesia on the day of dosing initiation (SD 1) and used as control group.
To evaluate the antiandrogenic activity, the tested compounds were applied topically on the inner part of the left ear, once daily, for 14 days. […] For animals of the castrated and intact control groups, one ten-μL vehicle was applied onto the left ear. No solution was applied on the right ear.
On Study Day 15, the hamsters were euthanized by cervical dislocation under isoflurane anesthesia. The left and right ears were collected attached together by the head skin, flat fixed on a paper and then immersed in 10% neutral buffered formalin. Punctures making a circular hole of 6 mm were made on the flat fixed ear in the region where the solution has been applied. These punch-made specimens were collected from each ear. Using a scalpel blade, the collected 6 mm round ear specimens were cut in the middle between the two cartilage ridges. The two equal parts of the ear round specimens were embedded in paraffin. After processing the tissue, the two parts were vertically embedded parallel to each other in such a way that the flat 6 mm area was facing out. From each paraffin block, one section (5 μm thick) was cut and collected on a glass slide. Thus, each slide contained two elongated sections of 6 mm length. Slides were stained with hematoxylin and eosin.
Using the video camera and the lens number X5 of the light microscope, the resulting field appearing on the screen has a length of 0.953 mm. When the first 6 mm long section was examined from the left to the right, the first and second fields were ignored and the third and fourth fields were captured for analysis by the image analyzer. Each field has the length of 0.953 mm. With the help of the screen mouse, the sebaceous glands within the whole field length (0.953 mm) were marked. Also, an area having the length of the whole field and the height between stratum granulosum and the upper edge of the cartilage was drawn.
The total area of the sebaceous glands (μm^2) in each examined field was calculated by the Image Analyser. We also measured the total area, which has the length of 0.953 mm and the height between stratum granulosum and the cartilage. In addition, the percentage of the area occupied by the glands was obtained. Thus, for each ear, two sections were cut and two fields from each section were analyzed. The total of the four readings was averaged and the mean standard error of the mean was calculated by the image analyzer. The results were expressed in μm^2 as the total surface of glands per field and also as percentage of the area occupied by the glands in the tissue.

Where [3] appears, read: Mus musculus, inhibition of DHT-stimulated Shionogi cell number, 10-12 days, read-out: Antiandrogenic activity IC50.
[4] abbreviates: inhibition of DHT-stimulated Shionogi cell number.
Where [5] appears, read: Mus musculus, read-out: Antiandrogenic activity IC50 (nM).
[6] abbreviates: inhibition of DHT-stimulated Shionogi cell number, 10-12 days, read-out: Antiandrogenic activity IC50.

The values below come from patent US6933321B2, “Antiandrogenic biphenyls” (Endorecherche, Inc., priority 2002, dated 2005).

Broadly, the IC50 is the concentration that gives 50% inhibition.

Where two headings read alike, the source gives them in different places.

On to `N#Cc1ccc(-c2c(F)cccc2F)cc1C(F)(F)F` [EM-4004], for which the IC50 in assay [1] (setting [3]) is > 500 nM. Besides, the “A = Ki OH-Flu/Ki compound” value in assay [1] (setting [4]) is on record as <0.2. Moreover, the inhibition in vivo at 0.01 mg in assay [2] (topical) came to 60%.
Regarding `N#Cc1ccc(-c2cc(F)ccc2F)cc1C(F)(F)F` [EM-4046], in assay [1] (setting [3]), the 50% inhibitory concentration (IC50) is > 500 nM. In addition, the “A = Ki OH-Flu/Ki compound” value in assay [1] (setting [4]) is <0.2. In addition, in assay [2] (topical), the inhibition in vivo at 0.03 mg was 5%.
`COc1ccc(-c2ccc(C#N)c(C(F)(F)F)c2)cc1F` [EM-4057]: the half-inhibitory concentration (IC50) in assay [1] (setting [5]) was found to be 84 nM. In assay [1] (setting [4]), the “A = Ki OH-Flu/Ki compound” value was 1.2. For the same molecule, the inhibition in vivo at 0.01 mg in assay [2] (topical) amounted to 64%.
For the molecule `COc1cc(F)ccc1-c1ccc(C#N)c(C(F)(F)F)c1` [EM-4068], the IC50 in assay [1] (setting [5]) was determined as 96 nM. Besides, the “A = Ki OH-Flu/Ki compound” value in assay [1] (setting [4]) worked out at 0.9. Besides, in assay [2] (topical), the inhibition in vivo at 0.03 mg worked out at 15%.
For `COc1ccc(-c2ccc(C#N)c(C(F)(F)F)c2)cc1Br` [EM-4080], the IC50 in assay [1] (setting [3]) was found to be 102 nM. For the same molecule, the “A = Ki OH-Flu/Ki compound” value in assay [1] (setting [4]) stood at 0.6. The inhibition in vivo at 0.03 mg in assay [2] (topical) worked out at 5%.
`COc1ccc(-c2ccc(C#N)c(C(F)(F)F)c2)c(F)c1` [EM-4174]: the concentration for half-maximal inhibition (IC50) in assay [1] (setting [5]) came to 77 nM. Besides, the “A = Ki OH-Flu/Ki compound” value in assay [1] (setting [4]) is recorded as 2.1. In addition, the inhibition in vivo at 0.01 mg in assay [2] (topical) came out at 86%.
Consider `N#Cc1ccc(-c2ccc(N)cc2)cc1C(F)(F)F` [EM-4186], for which, in assay [1] (setting [3]), the half-inhibitory concentration (IC50) worked out at 118 nM. Moreover, the “A = Ki OH-Flu/Ki compound” value in assay [1] (setting [4]) stood at 1.2. Moreover, the inhibition in vivo at 0.03 mg in assay [2] (topical) came out at 0%.
Take `N#Cc1ccc(-c2cccc(C(O)C(F)(F)F)c2)cc1C(F)(F)F` (centres unmarked) [EM-4265]: the IC50 in assay [1] (setting [3]) is 116 nM. Besides, in assay [1] (setting [4]), the “A = Ki OH-Flu/Ki compound” value is reported as 0.7. In addition, the inhibition in vivo at 0.03 mg in assay [2] (topical) stood at 0%.
Take `N#Cc1ccc(-c2ccc(F)cc2C(=O)Nc2ccc(Cl)cc2)cc1C(F)(F)F` [EM-4863]: in assay [1] (setting [6]), the half-inhibitory concentration (IC50) is 161 nM. The “A = Ki OH-Flu/Ki compound” value in assay [1] (setting [4]) is 0.3. Besides, in assay [2], the inhibition in vivo at 0.03 mg stood at 21%.
For `N#Cc1ccc(-c2c(F)cccc2F)cc1Cl` [EM-4977, 3-chloro-2′,6′-difluoro-biphenyl-4-carbonitrile], the half-inhibitory concentration (IC50) in assay [1] (setting [5]) turned out to be 12.8 nM. In addition, in assay [1] (setting [4]), the “A = Ki OH-Flu/Ki compound” value was determined as 12. The inhibition in vivo at 0.001 mg in assay [2] (topical, dose 1 μg daily for 14 days) was found to be 25.9%. Moreover, in assay [2] (topical, dose 3 μg daily for 14 days), the inhibition in vivo at 0.003 mg is 48%. For the same molecule, the inhibition in vivo at 0.01 mg in assay [2] (topical) turned out to be 73%.
Consider `N#Cc1ccc(-c2ccc(F)cc2C(=O)NCc2ccccc2)cc1C(F)(F)F` [EM-5085], for which the IC50 in assay [1] (setting [3]) is > 500 nM. Moreover, the “A = Ki OH-Flu/Ki compound” value in assay [1] (setting [4]) is given as <0.2.
On to `N#Cc1ccc(-c2ccc(F)cc2C(=O)Nc2ccc(Cl)cc2)cc1C(F)(F)F` [EM-5086], for which the 50% inhibitory concentration (IC50) in assay [1] (setting [6]) is > 500 nM. Also, the “A = Ki OH-Flu/Ki compound” value in assay [1] (setting [4]) is on record as <0.2.
For the molecule `COC=Nc1cc(F)cc(C(N)=O)c1-c1ccc(C#N)c(C(F)(F)F)c1` [EM-5093], the half-inhibitory concentration (IC50) in assay [1] (setting [3]) was > 500 nM. Also, the “A = Ki OH-Flu/Ki compound” value in assay [1] (setting [4]) is <0.2.
The corresponding values for `N#Cc1ccc(-c2c(NC(=O)c3ccc(Cl)cc3)cc(F)cc2C(N)=O)cc1C(F)(F)F` [EM-5094] are > 500 nM and <0.2.
The corresponding values for `N#Cc1cc(F)c(-c2ccc(F)cc2F)cc1Cl` [EM-5111] are > 500 nM and <0.2.
In the case of `Cc1cc(C#N)c(Cl)cc1-c1ccc(F)cc1F` [EM-5112], the 50% inhibitory concentration (IC50) in assay [1] (setting [5]) was found to be 97 nM. Besides, the “A = Ki OH-Flu/Ki compound” value in assay [1] (setting [4]) is recorded as 1.1.
